The values that follow come from patent US20170071204A1, “ACTIVE COMPOUND COMBINATIONS HAVING IN[…]” (priority 2014, published 2017).

Holding throughout (format): in vivo
The subject of assay [1] is mustard beetle larvae (Phaedon cochleariae). Briefly: Phaedon cochleariae spray test (Chinese cabbage leaf disks). The conditions noted are these: mortality after 6 d. The source says: (§1) The expected activity for a given combination of two active compounds can be calculated according to S. R. Colby, Weeds 15 (1967), 20-22 as follows:
(§2) • X is the kill rate, expressed in % of the untreated control, when active compound A is applied at an application rate of m g/ha or at a concentration of m ppm, • Y is the kill rate, expressed in % of the untreated control, when active compound B is applied at an application rate of n g/ha or at a concentration of n ppm and • E is the kill rate, expressed in % of the untreated control, when active compounds A and B is applied at application rates of m and n g/ha or at a concentration of m and n ppm, then
(§3) If the observed insecticidal efficacy of the combination is higher than the one calculated as “E”, then the combination of the two compounds is more than additive, i.e., there is a synergistic effect.
Solvent: 78.0 parts by weight of acetone • • 1.5 parts by weight of dimethylformamide Emulsifier: alkylarylpolyglycol ether
(§4) To produce a suitable preparation of active compound, 1 part by weight of active compound is mixed with the stated amount of solvents and is diluted with water, containing an emulsifier concentration of 1000 ppm, to the desired concentration. To produce a suitable preparation of a spore suspension the spores are diluted with emulsifier containing water to the desired concentration. Further test concentrations are prepared by dilution with emulsifier containing water.
Chinese cabbage (Brassica pekinensis) leaf disks are sprayed with a preparation of the active ingredient of the desired concentration. Once dry, the leaf disks are infested with mustard beetle larvae (Phaedon cochleariae).
After the specified period of time, mortality in % is determined. 100% means all beetle larvae have been killed and 0% means none of the beetle larvae have been killed. The mortality values determined thus are recalculated using the Colby-formula (see sheet 1).

The subject of assay [2] is two spotted spidermite (Tetranychus urticae). Nature of the assay: Tetranychus urticae spray test OP-resistant (French bean leaf disks). The following applies: for Efficacy in % after 2 d: mortality after 2 d.
Source text: as §1, §2, §3
(§5) Solvent: 78.0 parts by weight acetone • 1.5 parts by weight dimethylformamide Emulsifier: alkylarylpolyglycol ether
as §4
French bean (Phaseolus vulgaris) leaf disks which are heavily infested with all stages of the two spotted spidermite (Tetranychus urticae), are sprayed with a preparation of the active ingredient of the desired concentration.
After the specified period of time, mortality in % is determined. 100% means all spider mites have been killed and 0% means none of the spider mites have been killed. The mortality values determined thus are recalculated using the Colby-formula (see sheet 1).

Assay [3] relates to green peach aphid (Myzus persicae). Briefly: Myzus persicae spray test (Chinese cabbage leaf disks). The following applies: for Efficacy in % after 1 d: mortality after 1 d; for Efficacy in % after 6 d: mortality after 6 d.
Source text: as §1, §2, §3, §5, §4
Chinese cabbage (Brassica pekinensis) leaf disks infected with all instars of the green peach aphid (Myzus persicae), are sprayed with a preparation of the active ingredient of the desired concentration.
After the specified period of time, mortality in % is determined. 100% means all aphids have been killed; 0% means none of the aphids have been killed. The mortality values determined thus are recalculated using the Colby-formula (see sheet 1).

Turning to `O=C(NC(=O)c1c(F)cccc1F)Nc1ccc(OC(F)(F)C(F)OC(F)(F)F)c(Cl)c1` (centres unmarked) [Novaluron], the “Efficacy in % after 6 d” value in assay [1] (100 g ai/ha) was found to be 0%.

As for `N#CCNC(=O)c1cnccc1C(F)(F)F` [Flonicamid], the “Efficacy in % after 2 d” value in assay [2] (4 g ai/ha) is reported as 0%.

With `O=C(/N=c1\ccccn1Cc1ccc(Cl)nc1)C(F)(F)F` [N-[(2E)-1-[(6-chloropyridin-3-yl)methyl]pyridin-2(1H)-ylidene]-2,2,2-trifluoroacetamide], the “Efficacy in % after 6 d” value in assay [1] (100 g ai/ha) was 0%.

`O=C(NC(=O)c1c(F)cccc1F)Nc1cc(Cl)c(OC(F)(F)C(F)C(F)(F)F)cc1Cl` (centres unmarked) [Lufenuron]: the “Efficacy in % after 2 d” value in assay [2] (20 g ai/ha) is listed as 0%.

As for `CCOP(=S)(OCC)Oc1nc(Cl)c(Cl)cc1Cl` [Chlorpyrifos], the “Efficacy in % after 6 d” value in assay [2] (4 g ai/ha, mortality after 6 d) stood at 0%. Further, the “Efficacy in % after 2 d” value in assay [2] (20 g ai/ha) was 0%.

As to Lepimectin, in assay [3] (4 g ai/ha), the “Efficacy in % after 1 d” value turned out to be 0% and the “Efficacy in % after 6 d” value was 0%. Further, in assay [3] (20 g ai/ha), the “Efficacy in % after 1 d” value is given as 0% and the “Efficacy in % after 6 d” value is on record as 0%.

In the case of Milbemectin, the “Efficacy in % after 6 d” value in assay [3] (4 g ai/ha) is on record as 0%.

Turning to Abamectin, the “Efficacy in % after 6 d” value in assay [1] (0.8 g ai/ha) is recorded as 0%.

For `O=C1C=C(N(Cc2ccc(Cl)nc2)CC(F)F)CO1` [Flupyradifurone], the “Efficacy in % after 2 d” value in assay [2] (0.8 g ai/ha) and in assay [2] (4 g ai/ha) was 0% in each case.
